{"source": "paper PMC11125359", "about": "(Pharmaceuticals, 2024)", "key": {"[1]": {"test_system": "human colon cancer (Caco-2) cell line", "experiment": "cells", "format": "cell-based", "details": "for IC50: Homo sapiens, read-out: Cytotoxic activity IC50, Colon (Caco-2)"}, "[2]": {"test_system": "caspase-3", "experiment": "Caspase-3 ELISA in treated A549 cells", "format": "cell-based, human", "details": "DMSO control 85.92 ± 0.12"}, "[3]": {"experiment": "Cytotoxic activity, MTT assay, normal lung (WI-38)", "format": "cell-based", "details": "human"}, "[4]": {"test_system": "human lung cancer (A549) cell line", "experiment": "Cytotoxic activity, MTT assay, lung (A549)", "details": "for IC50: Homo sapiens, A549, 48 h, read-out: Cytotoxic activity IC50, Lung (A549)"}, "[5]": {"test_system": "Bcl-2", "experiment": "Bcl-2 ELISA in treated A549 cells", "format": "cell-based, human", "details": "DMSO control 9.83 ± 0.05"}, "[6]": {"test_system": "human lung cancer (A549) cell line", "details": "48 h"}, "[7]": {"biological_target": "acetylcholinesterase (AChE) (Homo sapiens, UniProt P22303)", "sequence (P22303 32-614, species assumed)": "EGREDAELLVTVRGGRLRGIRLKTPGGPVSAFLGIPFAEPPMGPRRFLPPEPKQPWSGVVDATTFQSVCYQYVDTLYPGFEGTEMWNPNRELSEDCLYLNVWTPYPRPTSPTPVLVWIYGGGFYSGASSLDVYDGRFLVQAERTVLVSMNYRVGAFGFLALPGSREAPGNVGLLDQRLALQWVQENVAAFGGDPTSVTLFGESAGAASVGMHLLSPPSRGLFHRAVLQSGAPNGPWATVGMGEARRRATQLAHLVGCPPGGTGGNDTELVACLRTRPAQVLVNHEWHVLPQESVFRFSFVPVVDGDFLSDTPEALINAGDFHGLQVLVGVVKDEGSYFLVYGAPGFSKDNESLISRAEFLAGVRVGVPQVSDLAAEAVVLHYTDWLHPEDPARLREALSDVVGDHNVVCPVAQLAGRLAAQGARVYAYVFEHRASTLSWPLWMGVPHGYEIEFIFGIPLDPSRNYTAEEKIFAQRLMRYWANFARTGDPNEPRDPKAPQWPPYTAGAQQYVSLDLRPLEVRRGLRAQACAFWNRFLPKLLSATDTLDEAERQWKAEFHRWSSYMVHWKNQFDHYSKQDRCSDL", "experiment": "biochemical", "details": "same concentration (1000 µg/mL); mean ± SE"}, "[8]": {"experiment": "Iron-reducing power (IRP)", "details": "equal concentrations (1000 µg/mL); mean ± SE, three replicates"}, "[9]": {"experiment": "DPPH radical-scavenging activity", "details": "read-out: DPPH (IC50); mean ± SE, three replicates"}, "[10]": {"experiment": "ABTS radical scavenging assay", "details": "equal concentrations (1000 µg/mL); mean ± SE"}, "[11]": {"experiment": "Total antioxidant capacity (TAC), phosphomolybdenum method", "details": "equal concentrations (1000 µg/mL); mean ± SE, three replicates"}, "[12]": {"test_system": "Bcl-2", "experiment": "Bcl-2 ELISA in treated Caco-2 cells", "format": "cell-based, human", "details": "DMSO control 7.99 ± 0.08"}, "[13]": {"test_system": "α-glucosidase", "experiment": "α-Glucosidase inhibition (anti-diabetic)", "format": "biochemical", "details": "equal concentrations (1000 µg/mL); mean ± SE"}, "[14]": {"biological_target": "bovine serum albumin (BSA) (Bos taurus, UniProt P02769)", "sequence (P02769 25-607)": "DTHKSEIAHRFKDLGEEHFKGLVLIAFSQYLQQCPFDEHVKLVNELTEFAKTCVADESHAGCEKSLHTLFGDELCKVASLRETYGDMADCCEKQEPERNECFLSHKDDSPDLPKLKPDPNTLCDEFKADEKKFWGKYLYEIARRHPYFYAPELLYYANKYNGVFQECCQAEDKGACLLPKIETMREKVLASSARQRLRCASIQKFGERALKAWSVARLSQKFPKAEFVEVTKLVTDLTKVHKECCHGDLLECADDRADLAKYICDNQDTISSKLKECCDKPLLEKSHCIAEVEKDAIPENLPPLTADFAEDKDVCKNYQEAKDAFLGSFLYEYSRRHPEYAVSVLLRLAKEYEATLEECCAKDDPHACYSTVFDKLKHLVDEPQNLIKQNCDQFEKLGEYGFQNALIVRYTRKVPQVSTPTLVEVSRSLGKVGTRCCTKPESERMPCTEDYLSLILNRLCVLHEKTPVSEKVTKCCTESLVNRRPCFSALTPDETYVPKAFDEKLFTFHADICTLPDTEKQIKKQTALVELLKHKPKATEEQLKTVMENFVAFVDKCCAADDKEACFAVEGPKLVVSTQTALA", "details": "equal concentrations (1000 µg/mL); mean ± SE"}, "[15]": {"test_system": "proteinase enzyme (trypsin)", "experiment": "Proteinase enzyme inhibition (anti-inflammatory)", "format": "biochemical", "details": "equal concentrations (1000 µg/mL); mean ± SE"}, "[16]": {"test_system": "caspase-3", "experiment": "Caspase-3 ELISA in treated Caco-2 cells", "format": "cell-based, human", "details": "DMSO control 97.06 ± 0.14"}, "[17]": {"test_system": "α-amylase", "experiment": "α-Amylase inhibition (anti-diabetic)", "format": "biochemical", "details": "equal concentrations (1000 µg/mL); mean ± SE"}, "[18]": {"details": "Conc.: 5a 13.45, 5d 12.64, 5e 12.29, 5f 11.81, 7a 12.72, 7f 11.24, DOX 11.50"}, "[19]": {"details": "Conc.: 5a 26.91, 5d 25.27, 5e 24.58, 5f 23.63, 7a 25.43, 7f 22.48, DOX 23.00"}, "[20]": {"details": "Conc.: 5a 53.81, 5d 50.55, 5e 49.15, 5f 47.26, 7a 50.86, 7f 44.96, DOX 46.00"}, "[21]": {"details": "Conc.: 5a 107.63, 5d 101.09, 5e 98.31, 5f 94.51, 7a 101.72, 7f 89.93, DOX 91.99"}, "[22]": {"details": "Conc.: 5a 215.26, 5d 202.19, 5e 196.61, 5f 189.03, 7a 203.44, 7f 179.85, DOX 183.99"}}, "note": "Read-outs that look alike come from different tables or passages of the source."}
{"compound": "COc1cccc2c1C(=O)c1c(O)c3c(c(O)c1C2=O)C[C@@](O)(C(=O)CO)C[C@@H]3O[C@H]1C[C@H](N)[C@H](O)[C@H](C)O1", "note": "[Doxorubicin, reference compound]", "values": [{"measurement": "Therapeutic Index (TI), Colon (Caco-2)", "setting": "[1]; Caco-2", "result": 5.55}, {"measurement": "IC50", "setting": "[1]; Caco-2, 48 h", "result": "54.94 ± 0.16", "unit": "µM"}, {"measurement": "Viability %, Caco-2, 1st concentration", "setting": "[1]; human, Caco-2, 48 h", "result": 72.32, "unit": "%"}, {"measurement": "Viability %, Caco-2, 2nd concentration", "setting": "[1]; human, Caco-2, 48 h", "result": 50.77, "unit": "%"}, {"measurement": "Viability %, Caco-2, 3rd concentration", "setting": "[1]; human, Caco-2, 48 h", "result": 41.86, "unit": "%"}, {"measurement": "Viability %, Caco-2, 4th concentration", "setting": "[1]; human, Caco-2, 48 h", "result": 23.02, "unit": "%"}, {"measurement": "Viability %, Caco-2, 5th concentration", "setting": "[1]; human, Caco-2, 48 h", "result": 20.05, "unit": "%"}, {"measurement": "Caspase-3 level, Lung (A549)", "setting": "[2]", "result": "330.80 ± 0.46", "unit": "pg/mL"}, {"measurement": "IC50 at 48 h", "setting": "[3]", "result": "305 ± 4.72", "unit": "µM"}, {"measurement": "viability at 48 h", "setting": "[3]; Viability %, WI-38, 1st concentration", "result": 77.5, "unit": "%"}, {"measurement": "viability at 48 h", "setting": "[3]; Viability %, WI-38, 2nd concentration", "result": 69.1, "unit": "%"}, {"measurement": "viability at 48 h", "setting": "[3]; Viability %, WI-38, 3rd concentration", "result": 62.3, "unit": "%"}, {"measurement": "viability at 48 h", "setting": "[3]; Viability %, WI-38, 4th concentration", "result": 52.7, "unit": "%"}, {"measurement": "viability at 48 h", "setting": "[3]; Viability %, WI-38, 5th concentration", "result": 38.5, "unit": "%"}, {"measurement": "IC50", "setting": "[4]", "result": "36.45 ± 0.16", "unit": "µM"}, {"measurement": "Bcl-2 level, Lung (A549)", "setting": "[5]", "result": "2.55 ± 0.01", "unit": "ng/mL"}, {"measurement": "Viability %, A549, 1st concentration", "setting": "[6]", "result": 80.86, "unit": "%"}, {"measurement": "Viability %, A549, 2nd concentration", "setting": "[6]", "result": 69.31, "unit": "%"}, {"measurement": "Viability %, A549, 3rd concentration", "setting": "[6]", "result": 36.91, "unit": "%"}, {"measurement": "Viability %, A549, 4th concentration", "setting": "[6]", "result": 18.92, "unit": "%"}, {"measurement": "Viability %, A549, 5th concentration", "setting": "[6]", "result": 11.20, "unit": "%"}]}
{"compound": "COc1ccc(Nc2n[nH]c(/N=C/c3ccc(N4CCCCC4)cc3)c2C(=O)Nc2ccccc2)cc1", "note": "[5d]", "values": [{"measurement": "Inhibition (%) Acetylcholinesterase", "setting": "[7]", "result": "62.11 ± 0.04", "unit": "%"}, {"measurement": "inhibition at 1000 µg/mL", "setting": "[7]", "result": "62 ± 0.04", "unit": "%"}, {"measurement": "Viability %, Caco-2, 1st concentration", "setting": "[1]; [18]", "result": 70.71, "unit": "%"}, {"measurement": "Viability %, Caco-2, 2nd concentration", "setting": "[1]; [19]", "result": 51.15, "unit": "%"}, {"measurement": "Viability %, Caco-2, 3rd concentration", "setting": "[1]; [20]", "result": 40.54, "unit": "%"}, {"measurement": "Viability %, Caco-2, 4th concentration", "setting": "[1]; [21]", "result": 26.77, "unit": "%"}, {"measurement": "Viability %, Caco-2, 5th concentration", "setting": "[1]; [22]", "result": 23.43, "unit": "%"}, {"measurement": "IC50", "setting": "[1]; Caco-2, 48 h, MTT, mean ± SE", "result": "62.33 ± 0.14", "unit": "µM"}, {"measurement": "Therapeutic Index (TI), Colon (Caco-2)", "setting": "[1]; IC50 on normal cells (WI-38)/IC50 on Caco-2", "result": 11.73}, {"measurement": "Caspase-3 level, Lung (A549)", "setting": "[2]", "result": "300.73 ± 0.42", "unit": "pg/mL"}, {"measurement": "Iron-Reducing Power (IRP)", "setting": "[8]", "result": "35.51 ± 0.07", "unit": "µg/mL"}, {"measurement": "viability at 48 h", "setting": "[3]; WI-38 normal lung cells, Conc. as printed: 5a 53.81, 5d 50.55, 5e 49.15, 5f 47.26, 7a 50.86, 7f 44.96, DOX 46.00, read-out: Viability %, WI-38, 3rd concentration", "result": 82.7, "unit": "%"}, {"measurement": "viability at 48 h", "setting": "[3]; WI-38 normal lung cells, Conc. as printed: 5a 107.63, 5d 101.09, 5e 98.31, 5f 94.51, 7a 101.72, 7f 89.93, DOX 91.99, read-out: Viability %, WI-38, 4th concentration", "result": 76.8, "unit": "%"}, {"measurement": "viability at 48 h", "setting": "[3]; WI-38 normal lung cells, Conc.: 5a 13.45, 5d 12.64, 5e 12.29, 5f 11.81, 7a 12.72, 7f 11.24, DOX 11.50, read-out: Viability %, WI-38, 1st concentration", "result": 98.7, "unit": "%"}, {"measurement": "viability at 48 h", "setting": "[3]; WI-38 normal lung cells, Conc.: 5a 26.91, 5d 25.27, 5e 24.58, 5f 23.63, 7a 25.43, 7f 22.48, DOX 23.00, read-out: Viability %, WI-38, 2nd concentration", "result": 90.7, "unit": "%"}, {"measurement": "viability at 48 h", "setting": "[3]; WI-38 normal lung cells, Conc.: 5a 215.26, 5d 202.19, 5e 196.61, 5f 189.03, 7a 203.44, 7f 179.85, DOX 183.99, read-out: Viability %, WI-38, 5th concentration", "result": 62.7, "unit": "%"}, {"measurement": "IC50 at 48 h", "setting": "[3]; WI-38 normal lung cells, 48 h, MTT, mean ± SE, read-out: Cytotoxic activity IC50, Normal Lung (WI-38)", "result": "732 ± 10.5", "unit": "µM"}, {"measurement": "IC50", "setting": "[9]", "result": "23.98 ± 0.01", "unit": "µM"}, {"measurement": "ABTS (%) inhibition", "setting": "[10]", "result": "78.18 ± 0.05", "unit": "%"}, {"measurement": "Viability %, A549, 1st concentration", "setting": "[4]; [18]", "result": 90.46, "unit": "%"}, {"measurement": "Viability %, A549, 2nd concentration", "setting": "[4]; [19]", "result": 79.41, "unit": "%"}, {"measurement": "Viability %, A549, 3rd concentration", "setting": "[4]; [20]", "result": 48.01, "unit": "%"}, {"measurement": "Viability %, A549, 4th concentration", "setting": "[4]; [21]", "result": 36.58, "unit": "%"}, {"measurement": "Viability %, A549, 5th concentration", "setting": "[4]; [22]", "result": 18.10, "unit": "%"}, {"measurement": "IC50", "setting": "[4]", "result": "48.61 ± 0.14", "unit": "µM"}, {"measurement": "Total Antioxidant Capacity (TAC)", "setting": "[11]", "result": "54.13 ± 0.20", "unit": "mg Gallic Acid/g"}, {"measurement": "Bcl-2 level, Colon (Caco-2)", "setting": "[12]", "result": "3.20 ± 0.03", "unit": "ng/mL"}, {"measurement": "Bcl-2 level, Lung (A549)", "setting": "[5]", "result": "2.81 ± 0.01", "unit": "ng/mL"}, {"measurement": "Inhibition (%) α-Glucosidase", "setting": "[13]", "result": "27.84 ± 0.05", "unit": "%"}, {"measurement": "Inhibition (%) Protein Denaturation", "setting": "[14]", "result": "27.79 ± 0.03", "unit": "%"}, {"measurement": "Inhibition (%) Proteinase", "setting": "[15]", "result": "24.17 ± 0.03", "unit": "%"}, {"measurement": "Caspase-3 level, Colon (Caco-2)", "setting": "[16]", "result": "242.65 ± 0.36", "unit": "pg/mL"}, {"measurement": "Inhibition (%) α-Amylase", "setting": "[17]", "result": "32.37 ± 0.05", "unit": "%"}]}
